The target in one assay is T1, MSK2_h (Homo sapiens, UniProt O75676).
T1 construct: purchased Life Technologies (Invitrogen) SelectScreen, Z'-LYTE / Adapta
The experiment in a line: SelectScreen kinase assay. Type of assay: biochemical. The settings on record: KM ATP, read-out: % control.

The next assay has as its target T2, JAK2 (Homo sapiens, UniProt O60674).
T2 construct: purchased Millipore 14-511
The experiment in a line: JAK2 HTRF assay. It is filed as biochemical. As to the method: CC-509 was prepared at a concentration of 1.5 mM in DMSO followed by 3-fold dilutions in Greiner […] polypropylene plates. A 1:4 dilution of compounds by 8 μL/well transfer from the polypropylene plates to 24 μL/well Assay Buffer (50 mM HEPES pH 7.6, 1 mM DTT, 10 mM MgCl2, 0.01% Triton X100, 0.01% BSA and 0.1 mM EDTA) in Costar 3573 384 well black plates was then performed. Kinase (13 μL/well of 4.6 ng/mL JAK2, Millipore 14–511) or Assay Buffer only (background controls) were added to Costar 3573 384-well black plates and compound (2 μL/well) was added from the 1:4 dilution plate. […] Time resolved fluorescence was read in assay plates on a PerkinElmer EnVision. […]
For the TEL-Syk assay, the intensity values for the 700 and 800 channel were exported as text files in ActivityBase (IDBS, Guildford, UK) to derive the ratios that reflect kinase activity. […] For the JAK2 HEL and Ramos NFAT β-lactamase assays, the fluorescence values obtained at 460 nm and 530 nm were exported into ActivityBase to calculate response ratios. […] Evans blue dye extravasation was expressed as mean ± SEM and % inhibition for the test article groups was normalized to the cromolyn positive control. […] The mean data from each group was plotted and either the AUC(day 11–18) or % inhibition on day 18 was calculated. Data is expressed as mean ± SEM of each group with n = 6–12. […]

For another assay, the target named is T3, RetA (Homo sapiens, UniProt P07949).
T3 construct: purchased Life Technologies PV3819
The experiment in a line: Ret A HTRF assay. It is filed as biochemical. The settings on record: in-house, mean ± SD. As to the method: CC-509 was prepared at a concentration of 1.5 mM in DMSO followed by 3-fold dilutions in Greiner […] polypropylene plates. A 1:4 dilution of compounds by 8 μL/well transfer from the polypropylene plates to 24 μL/well Assay Buffer (50 mM HEPES pH 7.6, 1 mM DTT, 10 mM MgCl2, 0.01% Triton X-100, 0.01% BSA and 0.1 mM EDTA) in Costar 3710 384 well black plates was then performed. Kinases (13 μL/well of 31 ng/ml RetA (Life Technologies, Grand Island, NY PV3819) in Assay Buffer) or Assay Buffer only (background controls) were added to Costar 3710 384-well black plates for the HTRF assays and compound (2 μL/ well) was added from the 1:4 dilution plate. […] Time resolved fluorescence was read in assay plates on a PerkinElmer EnVision. […] The IC50 value was determined as described in the data fitting section below.
For the TEL-Syk assay, the intensity values for the 700 and 800 channel were exported as text files in ActivityBase (IDBS, Guildford, UK) to derive the ratios that reflect kinase activity. […] For the JAK2 HEL and Ramos NFAT β-lactamase assays, the fluorescence values obtained at 460 nm and 530 nm were exported into ActivityBase to calculate response ratios. […] Evans blue dye extravasation was expressed as mean ± SEM and % inhibition for the test article groups was normalized to the cromolyn positive control. […] Data is expressed as mean ± SEM of each group with n = 6–12. […]

Assay [1] concerns the target T4, Tel-Syk fusion protein in HEK293 cells (Homo sapiens, UniProt P41212+P43405).
T4 construct: human Syk (NM_003177.5) kinase domain corresponding to amino acids 341–612; myristoylation motif (N); expressed in transfected cells
The experiment in a line: Tel-Syk biomarker assay (in-cell western, Syk Y525/526 phosphorylation). Type of assay: cell-based.
Description: HEK293 T-REx™ (Life Technologies, Grand Island, NY) stably transfected with human TEL-Syk (cloned as described prior section DNA constructs) were plated on black poly-D-lysine coated 96-well plates (BD Biosciences, San Diego, CA) in culture media containing tetracycline-free fetal bovine serum (Clontech, MountainView, CA) for 16 hours in a tissue culture incubator. Tel-Syk expression was induced for 6 hours in fresh growth media containing 1 μg/ml tetracycline (Sigma Chemicals, St. Louis, MO). […] Plates were blocked with Odyssey Blocking Buffer for 90 minutes at room temperature and incubated overnight at 4°C on a rotating platform with rabbit phospho-Syk (1:1000) and mouse V5 (1:2500) primary antibodies diluted in Odyssey Blocking Buffer. The plates were washed 5 times with 1X PBS + 0.1% Tween-20, incubated for 1 hour at room temperature with anti-rabbit IR680 (1:1000) and anti-mouse IR800CW (1:1000) secondary antibodies diluted in Odyssey Blocking Buffer, and washed 5 additional times with 1X PBS + 0.1% Tween-20 at room temperature. The plates were scanned on the Li-Cor Odyssey instrument (Li-Cor Biosciences, Lincoln, NE) in the 700 and 800 channels.

Data on 1 molecule can be found in PMC4710522, “A Novel Triazolopyridine-Based Spleen Tyrosine Kinase Inhibitor That Arrests Joint Inflammation” (PLoS ONE, 2016).

T2 sequence (O60674 whole entry): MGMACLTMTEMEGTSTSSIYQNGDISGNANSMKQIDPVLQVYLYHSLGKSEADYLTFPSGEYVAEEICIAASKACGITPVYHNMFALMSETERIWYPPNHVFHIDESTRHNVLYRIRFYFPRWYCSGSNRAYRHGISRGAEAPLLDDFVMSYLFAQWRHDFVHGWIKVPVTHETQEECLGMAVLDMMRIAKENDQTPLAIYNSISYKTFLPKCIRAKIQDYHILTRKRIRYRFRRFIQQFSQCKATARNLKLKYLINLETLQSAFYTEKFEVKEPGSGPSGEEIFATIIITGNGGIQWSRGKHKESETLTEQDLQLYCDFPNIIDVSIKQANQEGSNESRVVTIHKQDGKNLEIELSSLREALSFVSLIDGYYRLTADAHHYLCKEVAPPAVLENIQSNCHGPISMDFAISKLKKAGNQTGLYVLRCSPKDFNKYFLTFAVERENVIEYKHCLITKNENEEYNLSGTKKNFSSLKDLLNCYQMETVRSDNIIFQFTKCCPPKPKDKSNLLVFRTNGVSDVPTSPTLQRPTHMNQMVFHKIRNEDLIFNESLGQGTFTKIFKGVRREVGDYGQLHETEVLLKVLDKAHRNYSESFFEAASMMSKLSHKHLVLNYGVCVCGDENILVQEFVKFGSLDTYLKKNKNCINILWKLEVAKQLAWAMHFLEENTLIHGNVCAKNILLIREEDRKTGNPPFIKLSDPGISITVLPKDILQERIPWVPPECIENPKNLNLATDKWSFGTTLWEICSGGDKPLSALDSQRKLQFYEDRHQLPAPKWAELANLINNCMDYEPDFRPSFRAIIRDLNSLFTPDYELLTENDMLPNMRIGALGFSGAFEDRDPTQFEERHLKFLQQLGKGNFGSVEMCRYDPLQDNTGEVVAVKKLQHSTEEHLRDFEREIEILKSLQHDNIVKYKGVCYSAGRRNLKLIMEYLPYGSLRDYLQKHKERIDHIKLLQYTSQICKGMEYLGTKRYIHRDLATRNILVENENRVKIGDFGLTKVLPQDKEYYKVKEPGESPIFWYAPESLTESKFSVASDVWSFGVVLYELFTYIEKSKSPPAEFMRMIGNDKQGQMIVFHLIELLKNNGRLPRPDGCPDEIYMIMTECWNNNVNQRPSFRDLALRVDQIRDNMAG
T4 sequence (P41212+P43405 fused): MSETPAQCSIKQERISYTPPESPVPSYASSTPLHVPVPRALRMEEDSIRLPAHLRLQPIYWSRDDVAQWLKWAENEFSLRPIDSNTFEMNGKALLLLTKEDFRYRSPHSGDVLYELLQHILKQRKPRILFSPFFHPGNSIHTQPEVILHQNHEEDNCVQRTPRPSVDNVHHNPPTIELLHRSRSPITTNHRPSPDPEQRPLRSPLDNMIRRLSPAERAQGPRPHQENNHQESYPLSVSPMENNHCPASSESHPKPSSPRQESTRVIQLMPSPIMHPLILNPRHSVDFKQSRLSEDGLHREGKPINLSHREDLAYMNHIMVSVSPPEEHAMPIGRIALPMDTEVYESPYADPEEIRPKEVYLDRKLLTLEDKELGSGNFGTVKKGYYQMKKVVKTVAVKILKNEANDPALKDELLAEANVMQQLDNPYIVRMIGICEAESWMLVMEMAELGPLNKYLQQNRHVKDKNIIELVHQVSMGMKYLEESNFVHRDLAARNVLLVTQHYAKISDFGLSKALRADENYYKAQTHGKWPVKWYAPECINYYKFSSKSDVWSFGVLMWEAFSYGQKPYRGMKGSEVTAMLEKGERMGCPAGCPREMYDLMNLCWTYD
T3 sequence (P07949 29-1114): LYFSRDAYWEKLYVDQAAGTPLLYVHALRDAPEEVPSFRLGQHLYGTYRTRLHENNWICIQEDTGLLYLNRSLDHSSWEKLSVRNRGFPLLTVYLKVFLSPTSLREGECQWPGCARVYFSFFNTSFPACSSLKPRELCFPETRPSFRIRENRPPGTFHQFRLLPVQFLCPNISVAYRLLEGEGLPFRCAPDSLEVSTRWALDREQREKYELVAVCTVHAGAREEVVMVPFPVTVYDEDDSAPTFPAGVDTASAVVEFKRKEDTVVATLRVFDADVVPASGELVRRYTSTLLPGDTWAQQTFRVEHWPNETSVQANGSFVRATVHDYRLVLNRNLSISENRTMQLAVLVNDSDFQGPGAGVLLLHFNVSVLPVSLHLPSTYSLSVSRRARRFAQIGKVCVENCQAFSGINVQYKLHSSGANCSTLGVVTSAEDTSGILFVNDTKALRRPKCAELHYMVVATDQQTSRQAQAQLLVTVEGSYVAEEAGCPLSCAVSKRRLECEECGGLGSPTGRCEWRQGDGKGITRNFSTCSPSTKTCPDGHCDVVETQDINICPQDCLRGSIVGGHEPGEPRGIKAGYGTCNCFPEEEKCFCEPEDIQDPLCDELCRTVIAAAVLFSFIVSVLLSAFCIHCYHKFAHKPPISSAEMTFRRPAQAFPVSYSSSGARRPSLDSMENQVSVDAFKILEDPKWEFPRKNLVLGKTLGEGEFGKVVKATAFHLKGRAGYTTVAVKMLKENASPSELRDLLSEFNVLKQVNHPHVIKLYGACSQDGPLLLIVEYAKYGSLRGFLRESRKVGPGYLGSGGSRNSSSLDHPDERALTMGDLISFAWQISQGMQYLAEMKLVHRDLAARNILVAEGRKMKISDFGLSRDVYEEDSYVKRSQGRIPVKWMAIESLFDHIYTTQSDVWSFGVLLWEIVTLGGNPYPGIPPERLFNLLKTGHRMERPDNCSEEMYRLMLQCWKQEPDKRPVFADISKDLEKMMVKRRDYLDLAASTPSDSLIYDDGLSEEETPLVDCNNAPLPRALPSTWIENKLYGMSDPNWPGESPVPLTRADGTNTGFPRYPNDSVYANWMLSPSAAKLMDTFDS
T1 sequence (O75676 whole entry): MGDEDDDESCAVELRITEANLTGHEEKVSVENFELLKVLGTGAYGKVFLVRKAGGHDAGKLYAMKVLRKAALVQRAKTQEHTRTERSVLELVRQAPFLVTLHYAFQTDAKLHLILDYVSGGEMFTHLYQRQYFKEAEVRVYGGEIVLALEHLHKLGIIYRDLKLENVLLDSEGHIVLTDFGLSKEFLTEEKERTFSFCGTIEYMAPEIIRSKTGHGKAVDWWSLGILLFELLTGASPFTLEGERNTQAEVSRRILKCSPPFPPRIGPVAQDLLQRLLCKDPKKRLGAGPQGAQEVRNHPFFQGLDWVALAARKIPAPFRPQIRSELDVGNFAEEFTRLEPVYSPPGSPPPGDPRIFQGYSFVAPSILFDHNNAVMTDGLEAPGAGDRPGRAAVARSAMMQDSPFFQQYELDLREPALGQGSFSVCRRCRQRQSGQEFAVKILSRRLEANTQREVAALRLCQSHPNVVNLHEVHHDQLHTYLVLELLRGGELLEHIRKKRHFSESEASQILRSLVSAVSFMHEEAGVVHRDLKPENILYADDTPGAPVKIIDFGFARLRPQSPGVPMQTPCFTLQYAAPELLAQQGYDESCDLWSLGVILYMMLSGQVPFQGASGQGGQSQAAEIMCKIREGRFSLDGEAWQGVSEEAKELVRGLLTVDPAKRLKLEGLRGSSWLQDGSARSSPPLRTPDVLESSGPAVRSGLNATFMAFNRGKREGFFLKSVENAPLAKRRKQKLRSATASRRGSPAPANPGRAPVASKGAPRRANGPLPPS

As to `c1cc(CC2CCOCC2)n2nc(Nc3ccc4c(NC5CCOCC5)n[nH]c4c3)nc2c1` [CC-509, [3-(2H-3,4,5,6-tetrahydropyran-4-ylamino)(1H-indazol-6-yl)][5-(2H-3,4,5,6-tetrahydropyran-4-ylmethyl)(2H-1,2,4-triazolo[1,5-a]pyridin-2-yl)]amine], the remaining activity at 3 µM on MSK2_h stood at 81%. Besides, on JAK2 (data not shown), the “fold less potent than R406, Jak2 enzyme” value is 22 fold. Moreover, the half-maximal inhibitory concentration (IC50) against JAK2 (in-house, mean ± SD) came out at 19 ± 2 nM; against RetA, 750 ± 190 nM; in assay [1] it was 610 ± 190 nM.
